Laboratory results published in patent US20250376461A1, “INDAZOLE DERIVATIVES FOR TREATING TRPM3-MEDIATED DISORDERS” (Katholieke Universiteit Leuven, priority 2022, published 2025).

Each compound was assayed against T1, mouse TRPM3α2 (mTRPM3) ion channel (Mus musculus, UniProt J9SQF3) (assay: TRPM3 ion channel driven Ca2+ uptake, Fluo-4 AM assay, mTRPM3alpha2 overexpressing flip-in HEK293 cells stimulated with pregnenolone sulfate (50 μM)). Details: mTRPM3 overexpressing HEK293 cells stimulated with pregnenolone sulfate (50 μM), activity ranges A, B, C.
T1 construct: expressed in transfected cells; host or cells: flip-in HEK293
Type: cell-based
Experimental: Monitoring the TRPM3 Ion Channel Driven Ca2+ Uptake.
In order to monitor the inhibition of the mouse TRPM3α2 (mTRPM3) ion channel by the compounds of the invention, a cellular system making use of an mTRPM3alpha2 or hTRPM3 overexpressing cell line (flip-in HEK293) was used. The TRPM3 channel was stimulated/opened with Pregnenolone sulfate (PS) (50 μM) which results in Ca^2+ influx.
For mTRPM3, the intracellular Ca^2+ was measured with a Calcium responsive dye, Fluor-4 AM ester (Invitrogen). Cells were cultured until a confluence of 80-90%, washed with Versene (Invitrogen) and detached from the surface by a short incubation with 0.05% Trypsin (Invitrogen). The trypsination process was stopped by the addition of complete cell culture medium (DMEM, glutamax, 10% FCS, NEAA, Pen-Strep). Cells were collected and resuspended in Krebs buffer without Calcium at RT.
Prior the cell seeding (±2000 cells/well into a black, 384 well plate (Greiner)) the diluted compound was added in the assay plate, together with the PS dissolved in Krebs buffer containing Calcium. […] Directly after cell addition the plates were read on an Envision fluorescence reader (Perkin Elmer) by an Excitation of 485 nm and emission at 535 nm.
Channel inhibition was calculated compared to a non-PS stimulated control versus a condition stimulated with PS (50 μM) with vehicle. The ability of the compounds of the invention to inhibit this activity was determined as: Percentage inhibition=[1−((RFU determined for sample with test compound present−RFU determined for sample with positive control inhibitor) divided by (RFU determined in the presence of vehicle−RFU determined for sample with positive control inhibitor))]*100.
The activities of the Example compounds cpd 001-262 tested are depicted in the table below. All tested compounds show an activity in the Fluo-4 AM assay. The activity ranges A, B and C refer to IC50 values in the Fluo-4 AM assay as follows: “A”: IC50<1 μM; “B”: 1 μM≤IC50≤20 μM and “C”: IC50>20 μM.

T1 sequence (J9SQF3 1-1709 isoform J9SQF3-12): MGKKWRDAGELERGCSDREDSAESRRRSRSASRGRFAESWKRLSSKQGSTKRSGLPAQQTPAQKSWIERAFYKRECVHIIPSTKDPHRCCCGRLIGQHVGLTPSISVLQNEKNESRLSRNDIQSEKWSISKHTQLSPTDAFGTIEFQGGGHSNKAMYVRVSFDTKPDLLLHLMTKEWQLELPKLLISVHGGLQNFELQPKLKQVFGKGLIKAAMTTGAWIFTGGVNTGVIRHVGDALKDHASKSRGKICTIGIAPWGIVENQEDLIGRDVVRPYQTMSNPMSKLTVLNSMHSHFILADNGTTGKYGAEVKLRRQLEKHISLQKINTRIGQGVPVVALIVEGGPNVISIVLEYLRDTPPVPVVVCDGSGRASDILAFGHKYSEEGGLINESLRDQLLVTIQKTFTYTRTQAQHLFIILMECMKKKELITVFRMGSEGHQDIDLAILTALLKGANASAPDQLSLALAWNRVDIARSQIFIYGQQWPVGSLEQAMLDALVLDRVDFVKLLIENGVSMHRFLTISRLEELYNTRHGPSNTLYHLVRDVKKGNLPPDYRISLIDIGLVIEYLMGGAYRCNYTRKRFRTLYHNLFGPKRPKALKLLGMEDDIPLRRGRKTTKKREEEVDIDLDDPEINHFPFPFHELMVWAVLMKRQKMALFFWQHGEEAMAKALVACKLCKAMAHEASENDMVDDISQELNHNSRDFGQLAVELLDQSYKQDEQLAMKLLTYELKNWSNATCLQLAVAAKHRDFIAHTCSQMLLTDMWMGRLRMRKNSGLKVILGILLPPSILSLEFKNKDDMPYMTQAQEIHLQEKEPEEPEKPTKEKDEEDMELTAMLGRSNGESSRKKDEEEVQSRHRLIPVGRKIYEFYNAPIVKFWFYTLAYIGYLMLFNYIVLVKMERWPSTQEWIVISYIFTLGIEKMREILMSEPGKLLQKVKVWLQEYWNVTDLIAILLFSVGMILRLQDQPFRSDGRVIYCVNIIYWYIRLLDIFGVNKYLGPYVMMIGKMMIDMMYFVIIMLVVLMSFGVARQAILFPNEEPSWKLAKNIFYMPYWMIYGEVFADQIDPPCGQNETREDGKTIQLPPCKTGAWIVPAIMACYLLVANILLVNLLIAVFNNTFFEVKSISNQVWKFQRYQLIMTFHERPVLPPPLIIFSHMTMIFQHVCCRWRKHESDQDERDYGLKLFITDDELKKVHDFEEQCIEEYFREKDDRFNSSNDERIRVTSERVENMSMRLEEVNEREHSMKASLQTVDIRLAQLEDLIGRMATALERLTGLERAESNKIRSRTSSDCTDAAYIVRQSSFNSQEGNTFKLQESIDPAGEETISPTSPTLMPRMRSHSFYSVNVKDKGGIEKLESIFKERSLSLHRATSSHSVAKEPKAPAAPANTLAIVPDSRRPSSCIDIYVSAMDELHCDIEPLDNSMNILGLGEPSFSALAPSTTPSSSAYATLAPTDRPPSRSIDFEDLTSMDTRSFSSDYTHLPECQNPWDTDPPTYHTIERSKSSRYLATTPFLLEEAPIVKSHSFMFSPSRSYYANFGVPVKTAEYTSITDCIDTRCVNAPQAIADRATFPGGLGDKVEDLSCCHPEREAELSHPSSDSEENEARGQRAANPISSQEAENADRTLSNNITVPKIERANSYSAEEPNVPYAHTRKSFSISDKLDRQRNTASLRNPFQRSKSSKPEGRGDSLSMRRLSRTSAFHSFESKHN

Row | SMILES | IC50 [µM]
1 | Cn1nc2ccc(OCc3ccccc3)cc2c1C(=O)NC1CNCC1(F)F (single isomer, unassigned) [Cpd 002 - En1, 5-(benzyloxy)-N-(4,4-difluoropyrrolidin-3-yl)-2-methyl-2H-indazole-3-carboxamide] | > 20
2 | Cn1nc2ccc(OCc3ccccc3)cc2c1C(=O)NC1CNCC1(F)F (single isomer, unassigned) [Cpd 002 - En2, 5-(benzyloxy)-N-(4,4-difluoropyrrolidin-3-yl)-2-methyl-2H-indazole-3-carboxamide] | 1 to 20
3 | Cn1nc2ccc(OCc3cccnc3C(F)(F)F)cc2c1C(=O)NC1CCNCC1(F)F (single isomer, unassigned) [Cpd 003 - En1] | < 1
4 | Cn1nc2ccc(OCc3cccnc3C(F)(F)F)cc2c1C(=O)NC1CCNCC1(F)F (single isomer, unassigned) [Cpd 003 - En2] | 1 to 20
5 | Cn1nc2ccc(OCc3cccnc3C(F)(F)F)cc2c1C(=O)N[C@@H]1COC[C@@H]1O (single isomer, unassigned) [Cpd 010 - Dia1] | 1 to 20
6 | Cn1nc2ccc(OCc3cccnc3C(F)(F)F)cc2c1C(=O)N[C@@H]1COC[C@@H]1O (single isomer, unassigned) [Cpd 010 - Dia2] | 1 to 20
7 | Cn1nc2ccc(OCc3ccccc3)cc2c1C(=O)N[C@@H]1COC[C@H]1O (single isomer, unassigned) [Cpd 011 - Dia1] | 1 to 20
8 | Cn1nc2ccc(OCc3ccccc3)cc2c1C(=O)N[C@@H]1COC[C@H]1O (single isomer, unassigned) [Cpd 011 - Dia2] | 1 to 20
9 | Cn1nccc1COc1ccc2nn(C)c(C(=O)NC3COCC3O)c2c1 (single isomer, unassigned) [Cpd 056 - Dia1] | 1 to 20
10 | Cn1nccc1COc1ccc2nn(C)c(C(=O)NC3COCC3O)c2c1 (single isomer, unassigned) [Cpd 056 - Dia2] | > 20
11 | Cc1ncsc1COc1ccc2nn(C)c(C(=O)NC3COCC3O)c2c1 (single isomer, unassigned) [Cpd 080 - Dia1] | 1 to 20
12 | Cc1ncsc1COc1ccc2nn(C)c(C(=O)NC3COCC3O)c2c1 (single isomer, unassigned) [Cpd 080 - Dia2] | > 20
13 | Cn1nc2ccc(OCc3ccccn3)cc2c1C(=O)NC1CCNCC1(F)F (single isomer, unassigned) [Cpd 128 - En1] | 1 to 20
14 | Cn1nc2ccc(OCc3ccccn3)cc2c1C(=O)NC1CCNCC1(F)F (single isomer, unassigned) [Cpd 128 - En2] | > 20
15 | Cc1ncsc1COc1ccc2nn(C)c(C(=O)NC3CCNCC3(F)F)c2c1 (single isomer, unassigned) [Cpd 132 - En1] | 1 to 20
16 | Cc1ncsc1COc1ccc2nn(C)c(C(=O)NC3CCNCC3(F)F)c2c1 (single isomer, unassigned) [Cpd 132 - En2] | 1 to 20
17 | Cc1ncsc1COc1ccc2nn(C)c(C(=O)NC(C)(CO)C(N)=O)c2c1 (single isomer, unassigned) [Cpd 151 - En1] | < 1
18 | Cc1ncsc1COc1ccc2nn(C)c(C(=O)NC(C)(CO)C(N)=O)c2c1 (single isomer, unassigned) [Cpd 151 - En2] | 1 to 20
19 | Cn1nccc1COc1ccc2nn(C)c(C(=O)NC(C)(CO)C(N)=O)c2c1 (single isomer, unassigned) [Cpd 154 - En1] | > 20
20 | Cn1nccc1COc1ccc2nn(C)c(C(=O)NC(C)(CO)C(N)=O)c2c1 (single isomer, unassigned) [Cpd 154 - En2] | < 1
21 | Cn1ccc(COc2ccc3nn(C)c(C(=O)NC(C)(CO)C(N)=O)c3c2)n1 (single isomer, unassigned) [Cpd 155 - En1] | > 20
22 | Cn1ccc(COc2ccc3nn(C)c(C(=O)NC(C)(CO)C(N)=O)c3c2)n1 (single isomer, unassigned) [Cpd 155 - En2] | 1 to 20
23 | Cc1ncc(COc2ccc3nn(C)c(C(=O)NC(C)(CO)C(N)=O)c3c2)s1 (single isomer, unassigned) [Cpd 157 - En1, 3-hydroxy-2-methyl-2-({2-methyl-5-[(2-methyl-1,3-thiazol-5-yl)methoxy]-2H-indazol-3-yl}formamido)propanamide] | 1 to 20

Row | SMILES | IC50 [µM]
24 | Cc1ncc(COc2ccc3nn(C)c(C(=O)NC(C)(CO)C(N)=O)c3c2)s1 (single isomer, unassigned) [Cpd 157 - En2, 3-hydroxy-2-methyl-2-({2-methyl-5-[(2-methyl-1,3-thiazol-5-yl)methoxy]-2H-indazol-3-yl}formamido)propanamide] | < 1
25 | Cn1nc2ccc(OCC3CCOCC3)cc2c1C(=O)NC(C)(CO)C(N)=O (single isomer, unassigned) [Cpd 158 - En1] | 1 to 20
26 | Cn1nc2ccc(OCC3CCOCC3)cc2c1C(=O)NC(C)(CO)C(N)=O (single isomer, unassigned) [Cpd 158 - En2] | > 20
27 | Cn1nc2ccc(OCC3CCC3)cc2c1C(=O)NC1(CO)CCNC1=O (single isomer, unassigned) [Cpd 159 - En1] | 1 to 20
28 | Cn1nc2ccc(OCC3CCC3)cc2c1C(=O)NC1(CO)CCNC1=O (single isomer, unassigned) [Cpd 159 - En2] | < 1
29 | Cc1nc(COc2ccc3nn(C)c(C(=O)NC(C)(CO)C(N)=O)c3c2)cs1 (single isomer, unassigned) [Cpd 160 - En1] | 1 to 20
30 | Cc1nc(COc2ccc3nn(C)c(C(=O)NC(C)(CO)C(N)=O)c3c2)cs1 (single isomer, unassigned) [Cpd 160 - En2] | < 1
31 | Cn1nc2ccc(OCC3CC3)cc2c1C(=O)NC1(CO)CCNC1=O (single isomer, unassigned) [Cpd 161 - En1] | < 1
32 | Cn1nc2ccc(OCC3CC3)cc2c1C(=O)NC1(CO)CCNC1=O (single isomer, unassigned) [Cpd 161 - En2] | > 20
33 | Cn1nc2ccc(OCc3ccccn3)cc2c1C(=O)NC(C)(CO)C(N)=O (single isomer, unassigned) [Cpd 162 - En1] | 1 to 20
34 | Cn1nc2ccc(OCc3ccccn3)cc2c1C(=O)NC(C)(CO)C(N)=O (single isomer, unassigned) [Cpd 162 - En2] | < 1
35 | Cc1ncsc1COc1ccc2nn(C)c(C(=O)NC3(CO)CCNC3=O)c2c1 (single isomer, unassigned) [Cpd 163 - En1, N-[3-(hydroxymethyl)-2-oxopyrrolidin-3-yl]-2-methyl-5-[(4-methyl-1,3-thiazol-5-yl)methoxy]-2H-indazole-3-carboxamide] | < 1
36 | Cc1ncsc1COc1ccc2nn(C)c(C(=O)NC3(CO)CCNC3=O)c2c1 (single isomer, unassigned) [Cpd 163 - En2, N-[3-(hydroxymethyl)-2-oxopyrrolidin-3-yl]-2-methyl-5-[(4-methyl-1,3-thiazol-5-yl)methoxy]-2H-indazole-3-carboxamide] | 1 to 20
37 | Cc1ccc(COc2ccc3nn(C)c(C(=O)NC4(C(N)=O)CCOC4)c3c2)cn1 (single isomer, unassigned) [Cpd 164 - En1, N-(3-carbamoyloxolan-3-yl)-2-methyl-5-[(6-methylpyridin-3-yl)methoxy]-2H-indazole-3-carboxamide] | 1 to 20
38 | Cc1ccc(COc2ccc3nn(C)c(C(=O)NC4(C(N)=O)CCOC4)c3c2)cn1 (single isomer, unassigned) [Cpd 164 - En2, N-(3-carbamoyloxolan-3-yl)-2-methyl-5-[(6-methylpyridin-3-yl)methoxy]-2H-indazole-3-carboxamide] | 1 to 20
39 | Cn1nc2ccc(OCC3CC3)cc2c1C(=O)NC1(C(N)=O)CCOC1 (single isomer, unassigned) [Cpd 165 - En1] | 1 to 20
40 | Cn1nc2ccc(OCC3CC3)cc2c1C(=O)NC1(C(N)=O)CCOC1 (single isomer, unassigned) [Cpd 165 - En2] | > 20
41 | Cn1nc2ccc(OCc3ccccc3F)cc2c1C(=O)NC1(C(N)=O)CCOC1 (single isomer, unassigned) [Cpd 166 - En1] | 1 to 20
42 | Cn1nc2ccc(OCc3ccccc3F)cc2c1C(=O)NC1(C(N)=O)CCOC1 (single isomer, unassigned) [Cpd 166 - En2] | < 1
43 | Cn1nc2ccc(OCC3COC3)cc2c1C(=O)NC(C)(CO)C(N)=O (single isomer, unassigned) [Cpd 167 - En1] | > 20
44 | Cn1nc2ccc(OCC3COC3)cc2c1C(=O)NC(C)(CO)C(N)=O (single isomer, unassigned) [Cpd 167 - En2] | > 20
45 | Cn1nc2ccc(OCc3cccnc3)cc2c1C(=O)NC1(C(N)=O)CCOC1 (single isomer, unassigned) [Cpd 168 - En1] | 1 to 20
46 | Cn1nc2ccc(OCc3cccnc3)cc2c1C(=O)NC1(C(N)=O)CCOC1 (single isomer, unassigned) [Cpd 168 - En2] | < 1
